Tests used:
[1] = molecular target: T1, human TLR7 (wild type sequence) (Homo sapiens, UniProt Q9NYK1); assay: TLR7 cellular NFκB-luc reporter assay, wild type TLR7; format: cell-based; design: unit not given here; details: lowest effective concentration, wild type TLR7 (compounds 74 onward)
T1 construct: expressed in transfected cells; host or cells: HEK293
T1 sequence (Q9NYK1 27-1049): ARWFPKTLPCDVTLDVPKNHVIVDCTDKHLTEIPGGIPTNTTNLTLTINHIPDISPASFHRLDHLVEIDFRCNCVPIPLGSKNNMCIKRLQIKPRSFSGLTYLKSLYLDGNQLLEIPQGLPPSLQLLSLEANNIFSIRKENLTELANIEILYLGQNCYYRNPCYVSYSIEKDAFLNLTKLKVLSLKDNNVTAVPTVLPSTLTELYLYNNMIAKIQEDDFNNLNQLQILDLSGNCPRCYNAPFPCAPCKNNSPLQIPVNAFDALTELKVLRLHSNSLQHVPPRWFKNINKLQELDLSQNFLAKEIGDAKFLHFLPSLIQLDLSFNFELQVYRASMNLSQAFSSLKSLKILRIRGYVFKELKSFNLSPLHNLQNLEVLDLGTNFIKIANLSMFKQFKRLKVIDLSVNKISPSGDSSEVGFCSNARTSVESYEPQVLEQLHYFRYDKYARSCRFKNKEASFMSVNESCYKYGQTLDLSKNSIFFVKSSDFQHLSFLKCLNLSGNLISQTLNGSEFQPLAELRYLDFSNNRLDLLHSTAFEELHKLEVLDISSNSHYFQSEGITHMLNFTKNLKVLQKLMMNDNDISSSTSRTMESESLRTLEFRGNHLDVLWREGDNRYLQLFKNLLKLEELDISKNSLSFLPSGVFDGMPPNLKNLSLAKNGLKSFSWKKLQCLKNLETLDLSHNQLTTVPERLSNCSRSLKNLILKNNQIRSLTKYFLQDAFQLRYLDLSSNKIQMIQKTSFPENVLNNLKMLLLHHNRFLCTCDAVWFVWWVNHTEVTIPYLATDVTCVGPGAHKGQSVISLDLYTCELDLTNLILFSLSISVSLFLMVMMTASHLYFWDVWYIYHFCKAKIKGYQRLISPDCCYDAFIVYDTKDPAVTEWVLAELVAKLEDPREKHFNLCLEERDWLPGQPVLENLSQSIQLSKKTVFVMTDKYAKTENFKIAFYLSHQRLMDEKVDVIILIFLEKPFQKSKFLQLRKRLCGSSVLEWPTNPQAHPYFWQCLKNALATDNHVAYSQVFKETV
Method in brief: (§1)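 Transfected HEK293 cells expressing wild type or second leucine-rich repeat-deleted TLR7 or TLR8 together with an NFκB-luciferase reporter are treated with compound for 6 hours. Activation is measured by luciferase, and LEC is the lowest concentration exceeding the assay standard deviation at least two fold.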

[2] = molecular target: T2, human TLR8 (wild type sequence) (Homo sapiens, UniProt Q9NR97); assay: TLR8 cellular NFκB-luc reporter assay, wild type TLR8; format: cell-based; design: unit not given here; details: lowest effective concentration; for TLR 8 wt LEC: wild type TLR8 (compounds 74 onward); for TLR8-wt_LEC: wild type TLR8 (compounds 1-73)
T2 construct: expressed in transfected cells; host or cells: HEK293
T2 sequence (Q9NR97 27-1041): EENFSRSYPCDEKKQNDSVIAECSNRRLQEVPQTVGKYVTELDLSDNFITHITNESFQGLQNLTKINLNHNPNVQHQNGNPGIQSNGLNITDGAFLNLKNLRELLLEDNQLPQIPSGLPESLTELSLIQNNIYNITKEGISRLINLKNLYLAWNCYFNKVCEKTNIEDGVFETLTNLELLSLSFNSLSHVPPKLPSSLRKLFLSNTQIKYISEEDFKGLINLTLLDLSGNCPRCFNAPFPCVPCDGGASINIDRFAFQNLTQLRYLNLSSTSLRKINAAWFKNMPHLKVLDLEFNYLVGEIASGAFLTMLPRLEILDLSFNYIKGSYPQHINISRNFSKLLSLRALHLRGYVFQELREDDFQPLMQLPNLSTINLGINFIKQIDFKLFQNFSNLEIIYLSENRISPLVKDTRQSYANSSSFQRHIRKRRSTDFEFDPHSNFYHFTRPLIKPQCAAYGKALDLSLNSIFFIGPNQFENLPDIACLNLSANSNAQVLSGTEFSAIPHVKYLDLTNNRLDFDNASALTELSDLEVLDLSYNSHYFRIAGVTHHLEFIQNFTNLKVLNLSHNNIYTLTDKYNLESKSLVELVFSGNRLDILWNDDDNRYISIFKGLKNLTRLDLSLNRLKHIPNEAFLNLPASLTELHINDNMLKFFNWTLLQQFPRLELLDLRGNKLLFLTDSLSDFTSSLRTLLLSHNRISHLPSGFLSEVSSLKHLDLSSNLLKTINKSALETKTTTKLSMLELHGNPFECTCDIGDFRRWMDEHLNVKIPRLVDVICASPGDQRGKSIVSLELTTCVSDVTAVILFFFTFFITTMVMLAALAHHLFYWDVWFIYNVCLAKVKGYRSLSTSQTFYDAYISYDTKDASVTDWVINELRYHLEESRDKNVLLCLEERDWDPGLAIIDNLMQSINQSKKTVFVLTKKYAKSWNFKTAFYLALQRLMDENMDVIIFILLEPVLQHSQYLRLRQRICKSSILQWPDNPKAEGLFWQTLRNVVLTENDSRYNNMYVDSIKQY
Method in brief: as §1

[3] = system: interferon-stimulated responsive elements (ISRE) in HEK-ISREluc cells; assay: Activation of ISRE promoter elements by conditioned media from compound-treated PBMC; format: cell-based, human; design: unit not given here; details: conditioned media from compound-treated PBMC on HEK-ISREluc cells
Description: The potential of compounds to induce IFN-I was also evaluated by measuring the activation of interferon-stimulated responsive elements (ISRE) by conditioned media from PBMC. […] The plasmid pISRE-Luc from Clontech (ref. 631913) contains 5 copies of this ISRE element, followed by the firefly luciferase ORF. A HEK293 cell line stably transfected with pISRE-Luc (HEK-ISREluc) was established to profile of the conditioned PBMC cell culture media.
Briefly, PBMCs were prepared from buffy coats of at least two donors using a standard Ficoll centrifugation protocol. Isolated PBMCs were resuspended in RPMI medium supplemented with 10% human AB serum and 2×10^5 cells/well were dispensed into 384-well plates containing compounds (70 μL total volume). After overnight incubation, 10 μL of supernatant was transferred to 384-well plates containing 5×10^3 HEK-ISREluc cells/well in 30 μL (plated the day before). Following 24 hours of incubation, activation of the ISRE elements was measured by assaying luciferase activity using 40 μL/well Steady Lite Plus substrate (Perkin Elmer) and measured with ViewLux ultraHTS microplate imager (Perkin Elmer). The stimulating activity of each compound on the HEK-ISREluc cells was reported as LEC value, defined as the compound concentration applied to the PBMCs resulting in a luciferase activity at least two fold above the standard deviation of the assay. The LEC in turn indicates the degree of ISRE activation on transfer of a defined amount of PBMC culture medium. Recombinant interferon α-2a (Roferon-A) was used as a standard control compound.
For a given compound, the LEC value obtained from this assay were in the same range as the EC50 values obtained from the “suppression of HCV replication assay.” Thus, it is possible to compare the potential of compounds to induce IFN-I by PBMC, measured by either of the 2 assays.

[4] = system: human TLR7 mutant sequence comprising a deletion in the second leucine-rich repeat; assay: TLR7 cellular NFκB-luc reporter assay, mutant TLR7 with deletion in the second leucine-rich repeat; format: cell-based; design: unit not given here; details: lowest effective concentration, TLR7 mutant with deletion in second leucine-rich repeat
Method in brief: (§2)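 HEK293 cells transiently co-transfected with CMV-driven mutant TLR7 or TLR8 plasmid plus NFκB-luc reporter, cultured 48 h at 37 °C, then exposed to compound for 6 h at 37 °C, 5% CO2. Luciferase luminescence measured; dose-response curves from quadruplicates.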

[5] = system: human TLR8 mutant sequence comprising a deletion in the second leucine-rich repeat; assay: TLR8 cellular NFκB-luc reporter assay, mutant TLR8 with deletion in the second leucine-rich repeat; format: cell-based; design: unit not given here; details: lowest effective concentration, TLR8 mutant with deletion in second leucine-rich repeat
Method in brief: as §2

[6] = system: HCV replicon in Huh-7 luc/neo cells; assay: Suppression of HCV replicon replication by conditioned media from compound-treated PBMC; format: cell-based, HCV type 1 b; details: Hepatitis C virus, Huh-7; read-out: PBMC-HUH7_EC50
Method in brief: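 Readout is firefly luciferase from an HCV genotype 1b NS3-NS5B bicistronic replicon in Huh-7 cells, measured 24 h after adding conditioned medium. That medium came from overnight culture of compound-treated PBMC (2×10^5/well, human AB serum, at least two donors). Interferon α-2a was the reference.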

| SMILES | TLR 7 wt LEC [1] | TLR 8 wt LEC [2] | HEK-ISREluc LEC [3] | TLR7-dIRR2_LEC [4] | TLR8-wt_LEC [2] | TLR8-dIRR2_LEC [5] | EC50 [6] [µM] |
| --- | --- | --- | --- | --- | --- | --- | --- |
| CCC[C@@H](CCO)Nc1nc(N)ncc1OCc1[nH]ccc(=O)c1OC [Compound 88] |  |  | 0.050 |  |  |  |  |
| CCCCNc1nc(N)ncc1OCCN1CCOCC1 [Compound 27] |  |  |  | 0.78 | 5.36 | 0.64 | 1.03 |
| CCCCNc1nc(N)ncc1OCCOCCOC [Compound 61] |  |  |  | 1.38 | 3.59 | 1.56 | 1.91 |
| CCCCNc1nc(N)ncc1OCc1ccc(C(=O)OC)cc1OC [Compound 44] |  |  |  | 0.16 | 3.11 | 1.96 | 0.59 |
| CCCCNc1nc(N)ncc1OCCN [Compound 30] |  |  |  | >25 | 6.44 | 1.16 | 9.07 |
| CCCCNc1nc(N)ncc1OCc1cc(-c2ccc(F)cc2)on1 [Compound 33] |  |  |  | 0.36 | 1.78 | 1.17 | 1.48 |

Continued, in another order:

| TLR 7 wt LEC [1] | TLR 8 wt LEC [2] | SMILES | HEK-ISREluc LEC [3] | TLR7-dIRR2_LEC [4] | TLR8-wt_LEC [2] | TLR8-dIRR2_LEC [5] | EC50 [6] [µM] |
| --- | --- | --- | --- | --- | --- | --- | --- |
| 1.670 | 6.670 | CCCC[C@@H](CCOC(=O)NCC)Nc1nc(N)ncc1OC [Compound 89] | 0.526 |  |  |  |  |
| 0.449 | 0.623 | CCCCNc1nc(N)ncc1OCc1cccc(CO)c1 [Compound 77] | 0.137 |  |  |  |  |
| 0.560 | 0.041 | CCCC[C@@H](CO)Nc1nc(N)ncc1OCc1cccc(C(N)=O)n1 [Compound 80] | 0.027 |  |  |  |  |
| 1.620 | 0.329 | CCCC[C@@H](CO)Nc1nc(N)ncc1OCc1cc(C)nn1C [Compound 79] | 0.235 |  |  |  |  |
| 0.021 | 0.055 | CCC[C@@H](CO)Nc1nc(N)ncc1OCc1ncc(C)c(OC)c1C [Compound 76] | 0.008 |  |  |  |  |
| 0.101 | 0.429 | CCCC[C@@H](CCO)Nc1nc(N)ncc1OCc1cc(C)nn1C [Compound 81] | 0.086 |  |  |  |  |
| 0.646 | 3.750 | CCCCNc1nc(N)ncc1OCc1c[nH]nn1 [Compound 86] | 0.131 |  |  |  |  |
